Counter-ions that a name gives are not always drawn. Like-named read-outs stand apart in the source and are kept apart here.
What was measured:
Type in all cases: in vivo
Myzus persicae = test: Test for control efficacy on Myzus persicae (foliar application, Chinese cabbage); details: 144 h, foliar application to potted Chinese cabbage plants, 6 days after application, read-out: control efficacy (control rate), activity level
From the text: Test for control efficacy on Myzus persicae Chinese cabbage plants were planted in plastic pots (diameter: 8 cm, height: 8 cm), Green peach aphids (Myzus persicae) were propagated on the plants, and the number of surviving Green peach aphids in each pot was counted. The condensed heterocyclic compounds represented by the general formula (1) of the present invention or salts thereof were separately dispersed in water and diluted to 500 ppm. The agrochemical dispersions were applied to the foliage of the potted Chinese cabbage plants. After the plants were air-dried, the pots were kept in a greenhouse. At 6 days after the foliar application, the number of surviving Green peach aphids on the Chinese cabbage plant in each pot was counted, the control rate was calculated according to the formula shown below, and the control efficacy was evaluated according to the criteria shown below. Control rate=100−{(T×Ca)/(Ta×C)}×100 [Math. 1] Ta: the number of survivors before the foliar application in a treatment plot T: the number of survivors after the foliar application in a treatment plot Ca: the number of survivors before the foliar application in a non-treatment plot C: the number of survivors after the foliar application in a non-treatment plot Criteria A: the control rate is 100%. B: the control rate is 90 to 99%. C: the control rate is 80 to 89%. D: the control rate is 50 to 79%.

Laodelphax striatellus = test: Insecticidal test on Laodelphax striatellus (rice seedling dip); details: 192 h, read-out: insecticidal efficacy (corrected mortality rate), activity level
From the text: Insecticidal Test on Laodelphax striatellus
The condensed heterocyclic compounds represented by the general formula (1) of the present invention or salts thereof were separately dispersed in water and diluted to 500 ppm. Rice plant seedlings (variety: Nihonbare) were dipped in the agrochemical dispersions for 30 seconds. After air-dried, each seedling was put into a separate glass test tube and inoculated with ten 3rd-instar larvae of Laodelphax striatellus, and then the glass test tubes were capped with cotton plugs. At 8 days after the inoculation, the numbers of surviving larvae and dead larvae were counted, the corrected mortality rate was calculated according to the formula shown below, and the insecticidal efficacy was evaluated according to the criteria shown below. Corrected mortality rate (%)=100×(Survival rate in a non-treatment plot−Survival rate in a treatment plot)/Survival rate in a non-treatment plot [Math. 2] Corrected Mortality Rate A: the corrected mortality rate is 100%.

Plutella xylostella = test: Insecticidal test on Plutella xylostella (dip of Chinese cabbage seedlings with laid eggs); details: 144 h
Description: Insecticidal Test on Plutella xylostella
Adults of Plutella xylostella were released onto Chinese cabbage seedlings and allowed to lay eggs thereon. […] After air-dried, the seedlings were kept in a thermostatic chamber at 25° C. […] This test was conducted in triplicate using 10 adults of Plutella xylostella per plot. Corrected mortality rate (%)=100×(Number of hatched larvae in a non-treatment plot−Number of hatched larvae in a treatment plot)/Number of hatched larvae in a non-treatment plot [Math. 3]

[1] = 500 ppm, rice seedlings dipped 30 seconds, ten 3rd-instar larvae, 8 days after inoculation
[2] = 500 ppm, seedlings with laid eggs dipped about 30 seconds, 25° C., 6 days after dip treatment, criteria of Test Example 2, read-out: insecticidal efficacy (corrected mortality rate), activity level
[3] = read-out: insecticidal efficacy (corrected mortality rate), activity level

CCS(=O)(=O)c1cc2cc(Cl)ccc2nc1-c1cc2ncc(C(F)(F)F)cc2[nH]1 [Compound 4-3, 2-(6-chloro-3-ethylsulfonyl-quinolin-2-yl)-6-trifluoromethyl-1H-pyrrolo[3,2-b]pyridine trifluoroacetate]
100%: pest or weed control at 500 ppm (Myzus persicae) | mortality at 500 ppm (Laodelphax striatellus; [1]) | mortality at 500 ppm (Plutella xylostella; [2])

CCS(=O)(=O)c1cc2cc(Cl)ccc2nc1-c1[nH]c2cc(C(F)(F)F)cnc2c1F [Compound 1-3, 2-(6-chloro-3-ethylsulfonyl-quinolin-2-yl)-3-fluoro-6-trifluoromethyl-1H-pyrrolo[3,2-b]pyridine]
100%: pest or weed control at 500 ppm (Myzus persicae) | mortality at 500 ppm (Laodelphax striatellus; [1]) | mortality at 500 ppm (Plutella xylostella; [2])

C=Cc1ccc2cc(S(=O)(=O)CC)c(-c3c(Cl)c4ncc(C(F)(F)F)cc4n3C(=O)OC(C)(C)C)nc2c1 [Compound 2-98, 1-(tert-butoxycarbonyl)-2-(7-vinyl-3-ethylsulfonyl-quinolin-2-yl)-3-chloro-6-trifluoromethyl-1H-pyrrolo[3,2-b]pyridine]
100%: pest or weed control at 500 ppm (Myzus persicae) | mortality at 500 ppm (Laodelphax striatellus; [1]) | mortality at 500 ppm (Plutella xylostella; [2])

CCSc1cc2cc(Cl)ccc2nc1-c1cc2ncc(C(F)(F)F)cc2n1C(=O)OC(C)(C)C [Compound 2-41, 1-(tert-butoxycarbonyl)-2-(6-chloro-3-ethylthio-quinolin-2-yl)-6-trifluoromethyl-1H-pyrrolo[3,2-b]pyridine]
100%: pest or weed control at 500 ppm (Myzus persicae) | mortality at 500 ppm (Laodelphax striatellus; [1]) | mortality at 500 ppm (Plutella xylostella; [2])

CCOC(=O)Nc1ccc2cc(S(=O)(=O)CC)c(-c3c(F)c4ncc(C(F)(F)F)cc4n3C(=O)OC(C)(C)C)nc2c1 [Compound 2-49, 1-(tert-butoxycarbonyl)-2-(7-ethoxycarbonylamino-3-ethylsulfonyl-quinolin-2-yl)-3-fluoro-6-trifluoromethyl-1H-pyrrolo[3,2-b]pyridine]
100%: pest or weed control at 500 ppm (Myzus persicae) | mortality at 500 ppm (Laodelphax striatellus) | mortality at 500 ppm (Plutella xylostella; [3])

CCS(=O)(=O)c1cc2ccc(C=O)cc2nc1-c1c(Cl)c2ncc(C(F)(F)F)cc2n1C(=O)OC(C)(C)C [Compound 2-97, 1-(tert-butoxycarbonyl)-2-(7-formyl-3-ethylsulfonyl-quinolin-2-yl)-3-chloro-6-trifluoromethyl-1H-pyrrolo[3,2-b]pyridine]
100%: pest or weed control at 500 ppm (Myzus persicae) | mortality at 500 ppm (Laodelphax striatellus; [1]) | mortality at 500 ppm (Plutella xylostella; [2])

CCOC(=O)Nc1ccc2cc(S(=O)(=O)CC)c(-c3[nH]c4cc(C(F)(F)F)cnc4c3F)nc2c1 [Compound 1-13, 2-(7-ethoxycarbonylamino-3-ethylsulfonyl-quinolin-2-yl)-3-fluoro-6-trifluoromethyl-1H-pyrrolo[3,2-b]pyridine]
100%: pest or weed control at 500 ppm (Myzus persicae) | mortality at 500 ppm (Laodelphax striatellus) | mortality at 500 ppm (Plutella xylostella; [3])

CCS(=O)(=O)c1cc2cc(Cl)ccc2nc1-c1cc2ncc(C(F)(F)F)cc2n1C(=O)OC(C)(C)C [Compound 2-42, 1-(tert-butoxycarbonyl)-2-(6-chloro-3-ethylsulfonyl-quinolin-2-yl)-6-trifluoromethyl-1H-pyrrolo[3,2-b]pyridine]
100%: pest or weed control at 500 ppm (Myzus persicae) | mortality at 500 ppm (Laodelphax striatellus; [1]) | mortality at 500 ppm (Plutella xylostella; [2])

CCS(=O)(=O)c1cc2ccc(Br)cc2nc1-c1c(Cl)c2ncc(C(F)(F)F)cc2n1COC [Compound 2-65, 1-methoxymethyl-2-(7-bromo-3-ethylsulfonyl-quinolin-2-yl)-3-chloro-6-trifluoromethyl-1H-pyrrolo[3,2-b]pyridine]
100%: pest or weed control at 500 ppm (Myzus persicae) | mortality at 500 ppm (Laodelphax striatellus; [1]) | mortality at 500 ppm (Plutella xylostella; [2])

CCS(=O)(=O)c1cc2cc(Cl)ccc2nc1-c1c(F)c2ncc(C(F)(F)F)cc2n1C(C)=O [Compound 2-1, 1-acetyl-2-(6-chloro-3-ethylsulfonyl-quinolin-2-yl)-3-fluoro-6-trifluoromethyl-1H-pyrrolo[3,2-b]pyridine]
100%: pest or weed control at 500 ppm (Myzus persicae) | mortality at 500 ppm (Laodelphax striatellus; [1]) | mortality at 500 ppm (Plutella xylostella; [2])

CCS(=O)(=O)c1cc2cc(Cl)ccc2nc1-c1[nH]c2cc(C(F)(F)F)cnc2c1Cl [Compound 1-44, 3-chloro-2-(6-chloro-3-ethylsulfonyl-quinolin-2-yl)-6-trifluoromethyl-1H-pyrrolo[3,2-b]pyridine]
100%: pest or weed control at 500 ppm (Myzus persicae) | mortality at 500 ppm (Laodelphax striatellus; [1]) | mortality at 500 ppm (Plutella xylostella; [2])

CCS(=O)(=O)c1cc2ccc(Br)cc2nc1-c1c(Cl)c2ncc(C(F)(F)F)cc2n1C(=O)OC(C)(C)C [Compound 2-61, 1-(tert-butoxycarbonyl)-2-(7-bromo-3-ethylsulfonyl-quinolin-2-yl)-3-chloro-6-trifluoromethyl-1H-pyrrolo[3,2-b]pyridine]
100%: pest or weed control at 500 ppm (Myzus persicae) | mortality at 500 ppm (Laodelphax striatellus; [1]) | mortality at 500 ppm (Plutella xylostella; [2])
